We go through one compound from patent US12357641B2, “Identification of oleanolic acid and plant extract for glucose-6-phosphate dehydrogenase-related disorders including Bag3opathy” (Hong Kong Baptist University, priority 2022, dated 2025).

The test system of test [1] is creatine kinase-MB (CK-MB). Description: Oleanolic acid treatment in Bag3opathy patient: creatine kinase-MB (cardiac marker) in blood. It counts as in vivo, human. The settings on record: oral capsules 180 mg/day for three months, before treatment 24 U/L. As to the method: The Bag3opathy patient (body weight of patient: 40 kg) was orally administrated with Chinese medicine supplements containing oleanolic acid (180 mg per day) to evaluate the effects of treatment on BAG3 associated MFM for 3 months. 3 mL serum was collected for analysis before and after the treatment. The trial was approved the Ethics Committee of Hong Kong Baptist University (HASC/15-16/0268) according to the principles of the Declaration of Helsinki, and obtained the consent form.

Test [2] relates to G6PD. Description: Oleanolic acid treatment in normal mice: G6PD protein by ELISA in serum, heart muscle and skeletal muscle. It counts as in vivo, mouse. The settings on record: for G6PD protein in heart muscle: control 0.36±0.26 ng/mg; for G6PD protein level in serum: control 1.79±0.99 ng/mL. As to the method:
BAG3 P209-KI mice were reproduced by mating between the P209L/+ male and female mice. All mice were maintained with free access to food and water in plastic cages at 22±2° C. and kept on a 12-h light/dark cycle. Animal welfare and experimental procedures were carried out in accordance with the related ethical regulations of Yunnan Minzu University. […] Heart muscle and skeletal muscle samples were obtained after cardiac perfusion with cold PBS. Muscle tissues were lysed into homogenate in ice-cold lysis buffer (150 mM NaCl, 50 mM Tris, pH7.5, 1% NP-40, 0.1% sodium deoxycholate) plus 1 mM PMSF. Samples were then sonicated on ice and centrifuged at 10,000 g for 5 min. The concentration of G6PD in serum, heart muscle, and skeletal muscle were determined by G6PD Elisa Kit (Catalog #: SEA716Mu, Cloud-Clone Corp. USA) following the manufacturer's instruction. The plate was read at 450 nm by the microplate reader (iMark, Biorad, USA). The concentration of the total protein from tissue samples was determined by the spectrophotometer (NanoDrop One, Thermo Scientific, USA).
Seventeen normal male C57BL/6 mice, 6-8 weeks of age, were purchased from Hunan SJA Laboratory Animal Co., Ltd (Changsha, China). They were maintained with free access to food and water in plastic cages at 22±2° C. and kept on a 12-h light/dark cycle. Animal welfare and experimental procedures were carried out in accordance with the related ethical regulations of Yunnan Minzu University. Mice were randomly divided into one control group (n=6) and two dug treatment groups (n=5, 6). Oleanolic acid was suspended in 0.5% carboxymethylcellulose sodium (CMC-Na) solution with the concentration of 10 and 2.5 mg/mL. In the control and drug treatment groups, 0.5% CMC-Na and oleanolic acid (50, 200 mg/kg/day) was given orally for 10 days, respectively. On the 11th day, mice were sacrificed, and the serum and tissue samples were prepared and detected as the method described previously.
For orientation: An ELISA detects its analyte on a solid surface through an enzyme-linked reagent.

Test [3] deals with G6PD. In words: Oleanolic acid treatment in Bag3opathy patient: serum G6PD protein by ELISA. In kind it is in vivo, human. The settings on record: oral capsules 180 mg/day for three months, before treatment 0.09 ng/mL, normal girls 7.25±9.38 ng/mL. As to the method:
The concentration of G6P in serum was determined by High Sensitivity G6P Assay Kit (Catalog #: K687-100, BioVision, Inc. USA) following the manufacturer's instruction. Briefly, a volume of 200 μL of samples was deproteinized with 10 kDa MWCO spin filter prior to the reaction. After adding 50 μL of the appropriate reaction mix into each 50 μL of filtrate, the reaction was incubated for 5 min at 37° C. and protected from light. Finally, the concentration of G6P was calculated according the fluorescence intensity (λex=535/λem=587) measured by fluorometer (EnVision 2104 Multilabel Reader, PerkinElmer, USA). The serum levels of G6PD (SEA716Hu, Cloud-Clone Corp), GPI, catalase (CAT), thioredoxin (TXN), and superoxide dismutase 1 (SOD1) were measured by Elisa Kits purchased from Cloud-Clone Crop Inc. (USA). Serum samples were diluted 100 folds in PBS for measurements of CAT and TXN, and were diluted 800 folds for SOD1 test. The activity of PGM was determined by Colorimetric Assay Kit from BioVision (Inc. USA). Samples were prepared and measured at 450 nm by Elisa reader (Benchmark Plus, BioRad, USA) depending on the manufacturer's instructions.
The Bag3opathy patient (body weight of patient: 40 kg) was orally administrated with Chinese medicine supplements containing oleanolic acid (180 mg per day) to evaluate the effects of treatment on BAG3 associated MFM for 3 months. […]

Consider `CC1(C)CC[C@]2(C(=O)O)CC[C@]3(C)C(=CC[C@@H]4[C@@]5(C)CC[C@H](O)C(C)(C)[C@@H]5CC[C@]43C)[C@@H]2C1` [oleanolic acid, Oleanolic acid], for which the “creatine kinase-MB (CK-MB) after treatment” value in test [1] amounted to 16 U/L. The “G6PD protein in skeletal muscle” value in test [2] (oral 50 mg/kg daily for ten days, control 0.11±0.04 ng/mg, p=0.035) came out at 0.19 ± 0.04 ng/mg. Moreover, the “G6PD protein in heart muscle” value was 0.54 ± 0.32 ng/mg in test [2] (oral 50 mg/kg daily for ten days, p=0.36) and 0.93 ± 0.43 ng/mg in test [2] (oral 200 mg/kg daily for ten days, p=0.011). Moreover, the “G6PD protein level in serum” value was determined as 3.74 ± 1.91 ng/mL in test [2] (oral 50 mg/kg daily for ten days, p=0.140) and 4.47 ± 3.07 ng/mL in test [2] (oral 200 mg/kg daily for ten days, p=0.049). Also, the “serum G6PD protein after treatment” value in test [3] was determined as 2.43 ng/mL.
